Measured values taken from patent US20260158009A1 (GENZYME CORPORATION, priority 2023, published 2026).
pIC50: −log10 of the molar value.

Assays:
[1] = test system: U937 cells; assay: Cellular assay in U937 cells: activity of RIPK1 inhibitors on TNFα/zVAD.fmk-induced cell death (necroptosis), CellTiter 96 AQueous (MTS) readout; assay type: cell-based; conditions: Homo sapiens, U-937
Outline: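 Necroptosis was measured by viable-cell MTS reduction (4 h, absorbance 490 nm) after overnight (18–24 h) 37° C culture. Cell suspensions of U937 cells carried TNFα (100 ng/ml) plus zVAD.fmk (50 μM) before compound was added. A 10-point curve (10 μM–0.26 nM or 1 μM–0.07 nM) was run in duplicate, normalised to the control lacking TNFα/zVAD.fmk.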

[2] = target: T1, hRIPK1 (aa 1-375) fusion protein (Homo sapiens, UniProt Q13546); assay: ADP-Glo kinase assay: catalytic activity of RIPK1 (autophosphorylation, conversion of ATP to ADP); assay type: biochemical
T1 construct: hRIPK1 (aa 1-375) fusion protein
T1 sequence (Q13546 1-375): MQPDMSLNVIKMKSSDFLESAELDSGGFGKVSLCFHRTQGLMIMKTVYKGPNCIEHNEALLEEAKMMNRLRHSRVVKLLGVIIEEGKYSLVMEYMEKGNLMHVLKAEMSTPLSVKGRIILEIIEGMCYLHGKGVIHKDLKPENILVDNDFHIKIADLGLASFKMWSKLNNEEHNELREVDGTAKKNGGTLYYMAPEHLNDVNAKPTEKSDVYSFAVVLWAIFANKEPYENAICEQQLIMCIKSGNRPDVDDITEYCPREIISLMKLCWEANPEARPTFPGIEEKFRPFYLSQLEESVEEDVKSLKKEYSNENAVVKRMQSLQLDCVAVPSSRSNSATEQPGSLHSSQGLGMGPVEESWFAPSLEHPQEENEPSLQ
Outline: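 hRIPK1 (aa 1-375) fusion protein (3.6 μg/ml final) was preincubated 30 min at rt with compound (33300-1.69 nM, 1% DMSO), then 50 μM ATP was added for 240 min at rt. ADP from autophosphorylation was measured by ADP-Glo luminescence and curves fitted by nonlinear regression.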

`N#Cc1cc(F)cc([C@@H]2CCON2C(=O)[C@H]2CC[C@H](Cc3ccc(F)c(C(N)=O)c3)CC2)c1` [compound 195, trans-5-[[4-[(3S)-3-(3-cyano-5-fluoro-phenyl)isoxazolidine-2-carbonyl]cyclohexyl]methyl]-2-fluoro-benzamide] was tested, and the pIC50 [1] was 8.22 and the pIC50 [2] was 7.92.
`N#Cc1ccc2cn(C[C@H]3CC[C@H](C(=O)N4OCC[C@H]4c4cnccn4)CC3)nc2c1` [compound 196, trans-2-[[4-[(3S)-3-pyrazin-2-ylisoxazolidine-2-carbonyl]cyclohexyl]methyl]indazole-6-carbonitrile] was tested, and the pIC50 [1] was 6.42 and the pIC50 [2] was 7.12.
`Cc1ncc(F)cc1C[C@H]1CC[C@H](C(=O)N2OCC[C@H]2c2cncc(C#N)c2)CC1` [compound 197, trans-5-[(3S)-2-[4-[(5-fluoro-2-methyl-3-pyridyl)methyl]cyclohexanecarbonyl]isoxazolidin-3-yl]pyridine-3-carbonitrile] gave a pIC50 [1] of 8.40 and a pIC50 [2] of 7.62.
`Cc1nc([C@@H]2CCON2C(=O)[C@H]2CC[C@H](Cn3ccc4ncc(C#N)cc43)CC2)cs1` [compound 198, trans-1-[[4-[(3S)-3-(2-methylthiazol-4-yl)isoxazolidine-2-carbonyl]cyclohexyl]methyl]pyrrolo[3,2-b]pyridine-6-carbonitrile] showed a pIC50 [1] of 8.15 and a pIC50 [2] of 7.77.
For `Cc1nc([C@@H]2CCON2C(=O)[C@H]2CC[C@H](Cn3ncc4ncc(C#N)cc43)CC2)cs1` [compound 199, trans-1-[[4-[(3S)-3-(2-methylthiazol-4-yl)isoxazolidine-2-carbonyl]cyclohexyl]methyl]pyrazolo[4,3-b]pyridine-6-carbonitrile], the pIC50 [1] was 7.29 and the pIC50 [2] was 7.74.
`N#Cc1ccc2cnn(C[C@H]3CC[C@H](C(=O)N4OCC[C@H]4c4cnccn4)CC3)c2c1` [compound 200, trans-1-[[4-[(3S)-3-pyrazin-2-ylisoxazolidine-2-carbonyl]cyclohexyl]methyl]indazole-6-carbonitrile] gave a pIC50 [1] of 8.40 and a pIC50 [2] of 7.54.
Work on `Cc1nc([C@@H]2CCON2C(=O)[C@H]2CC[C@H](Cn3ncc4cc(C#N)ccc43)CC2)cs1` [compound 202, trans-1-[[4-[(3S)-3-(2-methylthiazol-4-yl)isoxazolidine-2-carbonyl]cyclohexyl]methyl]indazole-5-carbonitrile] yielded a pIC50 [1] of 7.41 and a pIC50 [2] of 7.72.
`Cc1nc([C@@H]2CCON2C(=O)[C@H]2CC[C@H](Cn3cc4ccc(C#N)cc4n3)CC2)cs1` [compound 203, trans-2-[[4-[(3S)-3-(2-methylthiazol-4-yl)isoxazolidine-2-carbonyl]cyclohexyl]methyl]indazole-6-carbonitrile] was tested, and the pIC50 [1] was 6.36 and the pIC50 [2] was 6.90.
For `Cc1nc([C@@H]2CCON2C(=O)[C@H]2CC[C@H](Cn3ncc4ccc(C#N)cc43)CC2)cs1` [compound 204, trans-1-[[4-[(3S)-3-(2-methylthiazol-4-yl)isoxazolidine-2-carbonyl]cyclohexyl]methyl]indazole-6-carbonitrile], the pIC50 [1] was 8.70 and the pIC50 [2] was 7.68.
`O=C([C@H]1CC[C@H](Cc2cc(F)c3ncnn3c2)CC1)N1OCC[C@H]1c1cnccn1` [compound 205, trans-[4-[(8-fluoro-[1,2,4]triazolo[1,5-a]pyridin-6-yl)methyl]cyclohexyl]-[(3S)-3-pyrazin-2-ylisoxazolidin-2-yl]methanone] gave a pIC50 [1] of 6.95 and a pIC50 [2] of 7.51.
`N#Cc1cc(F)cc([C@@H]2CCON2C(=O)[C@H]2CC[C@H](Cc3cc(F)c4ncnn4c3)CC2)c1` [compound 206, trans-3-fluoro-5-[(3S)-2-[4-[(8-fluoro-[1,2,4]triazolo[1,5-a]pyridin-6-yl)methyl]cyclohexanecarbonyl]isoxazolidin-3-yl]benzonitrile] showed a pIC50 [1] of 8.05 and a pIC50 [2] of 7.80.
Molecule `Cc1nccn1-c1cc(F)cc(C[C@H]2CC[C@H](C(=O)N3OCC[C@H]3c3ccc(F)cc3)CC2)c1` [compound 207, trans-[4-[[3-fluoro-5-(2-methylimidazol-1-yl)phenyl]methyl]cyclohexyl]-[(3S)-3-(4-fluorophenyl)isoxazolidin-2-yl]methanone] has a pIC50 [1] of 7.28 and a pIC50 [2] of 7.64.
In the case of `Cc1nccn1-c1cc(F)cc(C[C@H]2CC[C@H](C(=O)N3OCC[C@H]3c3cc(F)cc(F)c3)CC2)c1` [compound 208, trans-[(3S)-3-(3,5-difluorophenyl)isoxazolidin-2-yl]-[4-[[3-fluoro-5-(2-methylimidazol-1-yl)phenyl]methyl]cyclohexyl]methanone], the pIC50 [1] was 7.92 and the pIC50 [2] was 7.62.
With `Cc1nccn1-c1cc(F)cc(C[C@H]2CC[C@H](C(=O)N3OCC[C@H]3c3cnccn3)CC2)c1` [compound 209, trans-[4-[[3-fluoro-5-(2-methylimidazol-1-yl)phenyl]methyl]cyclohexyl]-[(3S)-3-pyrazin-2-ylisoxazolidin-2-yl]methanone] the pIC50 [1] was 7.27 and the pIC50 [2] was 7.66.
`Cc1nccn1-c1cc(F)cc(C[C@H]2CC[C@H](C(=O)N3OCC[C@H]3c3cncc(C#N)c3)CC2)c1` [compound 210, trans-5-[(3S)-2-[4-[[3-fluoro-5-(2-methylimidazol-1-yl)phenyl]methyl]cyclohexanecarbonyl]isoxazolidin-3-yl]pyridine-3-carbonitrile] showed a pIC50 [1] of 7.60 and a pIC50 [2] of 7.77.
For `Cn1nccc1-c1cc(F)cc(C[C@H]2CC[C@H](C(=O)N3OCC[C@H]3c3cnccn3)CC2)c1` [compound 211, trans-[4-[[3-fluoro-5-(2-methylpyrazol-3-yl)phenyl]methyl]cyclohexyl]-[(3S)-3-pyrazin-2-ylisoxazolidin-2-yl]methanone], the pIC50 [1] was 7.70 and the pIC50 [2] was 7.74.
`O=C1NCc2c(F)cc(C[C@H]3CC[C@H](C(=O)N4OCC[C@H]4c4ccc(F)cc4)CC3)cc21` [compound 212, trans-4-fluoro-6-[[4-[(3S)-3-(4-fluorophenyl)isoxazolidine-2-carbonyl]cyclohexyl]methyl]isoindolin-1-one] gave a pIC50 [1] of 8.00 and a pIC50 [2] of 7.64.
Molecule `O=C1NCc2c(F)cc(C[C@H]3CC[C@H](C(=O)N4OCC[C@H]4c4cnccn4)CC3)cc21` [compound 213, trans-4-fluoro-6-[[4-[(3S)-3-pyrazin-2-ylisoxazolidine-2-carbonyl]cyclohexyl]methyl]isoindolin-1-one] has a pIC50 [1] of 7.80 and a pIC50 [2] of 7.72.
Molecule `Cn1nccc1-c1cc(F)cc(C[C@H]2CC[C@H](C(=O)N3OCC[C@H]3c3cc(F)cc(C#N)c3)CC2)c1` [compound 214, trans-3-fluoro-5-[(3S)-2-[4-[[3-fluoro-5-(2-methylpyrazol-3-yl)phenyl]methyl]cyclohexanecarbonyl]isoxazolidin-3-yl]benzonitrile] has a pIC50 [1] of 8.40 and a pIC50 [2] of 7.70.
With `N#Cc1ccc2cnn(C[C@H]3CC[C@H](C(=O)N4OCC[C@H]4c4ccccn4)CC3)c2c1` [compound 215, trans-1-[[4-[(3S)-3-(2-pyridyl)isoxazolidine-2-carbonyl]cyclohexyl]methyl]indazole-6-carbonitrile] the pIC50 [1] was 8.15 and the pIC50 [2] was 7.70.
For `Cc1nccn1-c1cc(F)cc(C[C@H]2CC[C@H](C(=O)N3OCC[C@H]3c3cc(F)cc(C#N)c3)CC2)c1` [compound 216, trans-3-fluoro-5-[(3S)-2-[4-[[3-fluoro-5-(2-methylimidazol-1-yl)phenyl]methyl]cyclohexanecarbonyl]isoxazolidin-3-yl]benzonitrile], the pIC50 [1] was 8.00 and the pIC50 [2] was 7.82.
For `COc1cncc([C@@H]2CCON2C(=O)[C@H]2CC[C@H](Cn3ncc4cc(C#N)ccc43)CC2)n1` [compound 217, trans-1-[[4-[(3S)-3-(6-methoxypyrazin-2-yl)isoxazolidine-2-carbonyl]cyclohexyl]methyl]indazole-5-carbonitrile], the pIC50 [1] was 7.92 and the pIC50 [2] was 7.39.
`N#Cc1ccc2c(cnn2C[C@H]2CC[C@H](C(=O)N3OCC[C@H]3c3cnccn3)CC2)c1` [compound 218, trans-1-[[4-[(3S)-3-pyrazin-2-ylisoxazolidine-2-carbonyl]cyclohexyl]methyl]indazole-5-carbonitrile] gave a pIC50 [1] of 7.89 and a pIC50 [2] of 7.70.
For `N#Cc1cc(F)cc([C@@H]2CCON2C(=O)[C@H]2CC[C@H](Cc3cc(F)c4c(c3)C(=O)NC4)CC2)c1` [compound 219, trans-3-fluoro-5-[(3S)-2-[4-[(7-fluoro-3-oxo-isoindolin-5-yl)methyl]cyclohexanecarbonyl]isoxazolidin-3-yl]benzonitrile], the pIC50 [1] was 8.52 and the pIC50 [2] was 7.77.
With `Cc1nccn1-c1cc(F)cc(C[C@H]2CC[C@H](C(=O)N3OCC[C@H]3c3cncc(F)c3)CC2)c1` [compound 220, trans-[4-[[3-fluoro-5-(2-methylimidazol-1-yl)phenyl]methyl]cyclohexyl]-[(3S)-3-(5-fluoro-3-pyridyl)isoxazolidin-2-yl]methanone] the pIC50 [1] was 7.92 and the pIC50 [2] was 7.59.
`Cc1nc2ccc(C[C@H]3CC[C@H](C(=O)N4OCC[C@H]4c4cc(F)cc(C#N)c4)CC3)cn2n1` [compound 221, trans-3-fluoro-5-[(3S)-2-[4-[(2-methyl-[1,2,4]triazolo[1,5-a]pyridin-6-yl)methyl]cyclohexanecarbonyl]isoxazolidin-3-yl]benzonitrile] gave a pIC50 [1] of 7.72 and a pIC50 [2] of 7.66.
